Measured values from PMC8344243, “Design, synthesis, docking, ADMET studies, and anticancer evaluation of new 3-methylquinoxaline derivatives as VEGFR-2 inhibitors and apoptosis inducers” (Journal of Enzyme Inhibition and Medicinal Chemistry, 2021).
pIC50: −log10 of the molar value. “And” between values parts separate entries of the source, which are not always exact repeats. Equal values may be shown once. Each block holds one molecule with its values, some of them ahead of it.

Key:
primary rat hepatocytes = experiment: Cytotoxicity against primary rat hepatocytes (normal hepatic cells); assay type: cell-based; conditions: HepG2 vs primary rat hepatocytes
Source text: (§1) It is of high importance for anticancer agents to have minimum side effects on normal cells. […].

[1] = as above; assay type: cell-based; conditions: rat, primary rat hepatocytes
Source text: as §1

human VEGFR-2 = biological target: T1, human VEGFR-2 (Homo sapiens, UniProt P35968); experiment: In vitro VEGFR-2 enzyme inhibition assay (ELISA kit, HepG2 cell line); assay type: biochemical; conditions: human VEGFR-2 in HepG2 cell line
T1 construct: endogenous in cells; host or cells: HepG2
Source text: The synthesised compounds were estimated for their in vitro inhibition on human VEGFR-2 in HepG2 cell line; using ELISA kit[96] as described in Supplementary Data.

HepG2 = experiment: MTT anti-proliferative assay, HepG2; assay type: cell-based; conditions: Homo sapiens, read-out: Cytotoxicity on cancer cells IC50, HepG2
Experimental: (§2) In vitro cytotoxic activities of the synthesised compounds were evaluated against two different cancer cell lines; breast cancer (MCF-7) and hepatocellular carcinoma (HepG2) using standard MTT colorimetric assay as described by Mosmann[78]^,[79]. […].
(§3) The in vitro antiproliferative activities were assessed using the MTT assay protocol[78]^,[79]^,[95]. As shown in Supplementary Data.

HepG2 cells [2] = experiment: Flow cytometry cell cycle analysis; assay type: cell-based; conditions: 4.5 µM, 24 h
Experimental: The cell cycle parameters of the incubated cells were compared with untreated control cells (Table 2 and Figure 4).

caspase-3 = experiment: Active caspase-3 level in HepG2 cells (Western blot); assay type: cell-based; conditions: 4.5 µM, 24 h
HepG2 cells [3] = experiment: Annexin V and PI double staining apoptosis assay; assay type: cell-based; conditions: 4.5 µM, 24 h
Experimental: As compound 27a produced a high accumulation of HepG2 cells at the G2/M phase, such compound was further investigated for its apoptotic effect using Annexin V and PI double staining assay. In such a procedure, HepG2 cells were treated with compound 27a at a concentration of 4.5 µM and incubated for 24 h.
Apoptosis analysis for compound 27a in HepG2 cells was carried out using Annexin V-FITC as shown in Supplementary Data[30]^,[86].

MCF-7 = experiment: MTT anti-proliferative assay, MCF-7; assay type: cell-based; conditions: for pIC50: Homo sapiens, MCF7, MCF-7, MTT assay, read-out: Cytotoxicity on cancer cells IC50, MCF-7
Experimental: as §2, §3

caspase-9 = experiment: Active caspase-9 level in HepG2 cells (Western blot); assay type: cell-based; conditions: 4.5 µM, 24 h
BAX/Bcl-2 ratio = BAX/Bcl-2 ratio in HepG2 cells (Western blot); assay type: cell-based
Experimental: (§4) In this study, BAX and Bcl-2 expression levels in the HepG2 cell line after the treatment with compound 27a were determined by quantitative Western blotting. […] Also, it decreased the Bcl-2 level by 2-fold less than the control cells. In addition, the BAX/Bcl-2 ratio was increased 5-fold in the treated cells compared to the control cell (Table 4 and Figure 6). Meanwhile, compound 27a increased BAX/Bcl-2 ratio, it could trigger apoptosis in the experienced cells[90]^,[91].

Bcl-2 = Bcl-2 expression level in HepG2 cells (Western blot); assay type: cell-based
Experimental: as §4

BAX = BAX expression level in HepG2 cells (Western blot); assay type: cell-based
Experimental: as §4

T1 sequence (P35968 20-1356): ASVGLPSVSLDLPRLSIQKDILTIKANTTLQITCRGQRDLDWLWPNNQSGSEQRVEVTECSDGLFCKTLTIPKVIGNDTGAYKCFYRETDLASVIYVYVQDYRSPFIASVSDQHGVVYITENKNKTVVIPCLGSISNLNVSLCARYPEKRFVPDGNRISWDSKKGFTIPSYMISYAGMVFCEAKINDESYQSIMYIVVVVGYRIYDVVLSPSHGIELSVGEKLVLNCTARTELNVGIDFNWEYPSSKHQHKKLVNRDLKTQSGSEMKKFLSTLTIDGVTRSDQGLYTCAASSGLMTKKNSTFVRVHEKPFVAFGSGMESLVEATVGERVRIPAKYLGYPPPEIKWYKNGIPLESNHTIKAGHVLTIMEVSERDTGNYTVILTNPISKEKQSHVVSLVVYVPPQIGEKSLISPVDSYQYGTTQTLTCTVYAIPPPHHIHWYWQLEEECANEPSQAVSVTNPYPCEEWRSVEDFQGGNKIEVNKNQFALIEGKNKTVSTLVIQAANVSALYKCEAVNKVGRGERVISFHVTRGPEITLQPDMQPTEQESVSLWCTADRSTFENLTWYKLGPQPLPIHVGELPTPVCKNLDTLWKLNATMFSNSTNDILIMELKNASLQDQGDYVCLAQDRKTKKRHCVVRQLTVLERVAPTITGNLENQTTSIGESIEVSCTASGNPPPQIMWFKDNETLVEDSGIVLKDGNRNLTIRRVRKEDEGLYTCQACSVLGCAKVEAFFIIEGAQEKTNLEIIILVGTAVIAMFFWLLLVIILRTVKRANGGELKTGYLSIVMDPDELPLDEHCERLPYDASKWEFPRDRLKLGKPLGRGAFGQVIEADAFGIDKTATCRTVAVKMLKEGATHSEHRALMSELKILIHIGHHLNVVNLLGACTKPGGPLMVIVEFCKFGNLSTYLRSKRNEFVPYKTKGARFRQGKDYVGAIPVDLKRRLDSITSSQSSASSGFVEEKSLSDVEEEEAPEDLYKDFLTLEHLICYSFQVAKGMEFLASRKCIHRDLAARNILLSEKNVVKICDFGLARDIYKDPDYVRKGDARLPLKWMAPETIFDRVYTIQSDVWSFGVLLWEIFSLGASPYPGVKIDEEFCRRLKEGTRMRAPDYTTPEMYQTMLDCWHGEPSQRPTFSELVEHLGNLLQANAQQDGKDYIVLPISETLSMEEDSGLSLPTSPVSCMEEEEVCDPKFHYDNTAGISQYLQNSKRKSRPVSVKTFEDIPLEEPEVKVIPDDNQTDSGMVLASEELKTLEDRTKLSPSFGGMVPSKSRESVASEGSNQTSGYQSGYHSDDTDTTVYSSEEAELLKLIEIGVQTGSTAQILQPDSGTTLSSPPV

Structure (SMILES): Cc1nc2ccccc2n(CC(=O)Nc2ccc(C(=O)NCCc3ccccc3)cc2)c1=O [Compound 27b, 4-(2-(3-Methyl-2-oxoquinoxalin-1(2H)-yl)acetamido)-N-phenethylbenzamide]
- pIC50 (human VEGFR-2): 7.65
- pIC50 (HepG2): 4.38
- pIC50 (MCF-7): 4.21
- Activity against the MCF-7 cell line (in words) (MCF-7): inactive
- melting point: 283 to 285 °C

Structure (SMILES): Cc1cccc(C)c1NC(=O)c1ccc(NC(=O)Cn2c(=O)c(C)nc3ccccc32)cc1 [Compound 27d, N-(2,6-Dimethylphenyl)-4-(2-(3-methyl-2-oxoquinoxalin-1(2H)-yl)acetamido)-benzamide]
- pIC50 (human VEGFR-2): 7.66
- pIC50 (HepG2): 4.62
- pIC50 (MCF-7): 4.51
- melting point: 240 to 242 °C

Structure (SMILES): Cc1nc2ccccc2n(CC(=O)Nc2ccc(C(=O)Nc3ccc([N+](=O)[O-])cc3)cc2)c1=O [Compound 27e, 4-(2-(3-Methyl-2-oxoquinoxalin-1(2H)-yl)acetamido)-N-(4-nitrophenyl)benzamide]
- pIC50 (human VEGFR-2): 7.66
- pIC50 (HepG2): 4.56
- pIC50 (MCF-7): 4.37
- melting point: > 300 °C

Structure (SMILES): Cc1nc2ccccc2nc1SCC(=O)Nc1ccc(C(=O)NC(C)(C)C)cc1 [Compound 30a, N-(tert-Butyl)-4-(2-((3-methylquinoxalin-2-yl)thio)acetamido)benzamide]
- pIC50 (human VEGFR-2): 7.53
- pIC50 (HepG2): 4.36
- pIC50 (MCF-7): 4.21
- Activity against the MCF-7 cell line (in words) (MCF-7): inactive
- melting point: 231 to 233 °C

Structure (SMILES): Cc1nc2ccccc2nc1SCC(=O)Nc1ccc(C(=O)NCCc2ccccc2)cc1 [Compound 30d, 4-(2-((3-Methylquinoxalin-2-yl)thio)acetamido)-N-phenethylbenzamide]
- pIC50 (human VEGFR-2): 7.80
- pIC50 (HepG2): 4.49
- pIC50 (MCF-7): 4.37
- melting point: 220 to 222 °C

Structure (SMILES): Cc1nc2ccccc2nc1SCC(=O)Nc1ccc(C(=O)Nc2ccccc2)cc1 [Compound 30e, 4-(2-((3-Methylquinoxalin-2-yl)thio)acetamido)-N-phenylbenzamide]
- pIC50 (human VEGFR-2): 7.56
- pIC50 (HepG2): 4.61
- pIC50 (MCF-7): 4.50

Structure (SMILES): COc1cccc(OC)c1NC(=O)c1ccc(NC(=O)CSc2nc3ccccc3nc2C)cc1 [Compound 30g, N-(2,6-Dimethoxyphenyl)-4-(2-((3-methylquinoxalin-2-yl)thio)acetamido) benzamide]
- pIC50 (human VEGFR-2): 7.41
- pIC50 (HepG2): 4.39
- pIC50 (MCF-7): 4.21
- Activity against the MCF-7 cell line (in words) (MCF-7): inactive

Structure (SMILES): Cc1nc2ccccc2nc1SCC(=O)Nc1ccc(C(=O)NNc2ccccc2)cc1 [Compound 32, 2-((3-Methylquinoxalin-2-yl)thio)-N-(4-(2-phenylhydrazine-1-carbonyl)phenyl) acetamide]
- pIC50 (human VEGFR-2): 7.62
- pIC50 (HepG2): 4.38
- pIC50 (MCF-7): 4.23
- Activity against the MCF-7 cell line (in words) (MCF-7): inactive

Structure (SMILES): CNC(=O)c1cc(Oc2ccc(NC(=O)Nc3ccc(Cl)c(C(F)(F)F)c3)cc2)ccn1 [Sorafenib, reference compound]
- Cytotoxic activity against cancer HepG2 cell line more than against normal hepatic cells (primary rat hepatocytes): 8 fold
- pIC50 [1]: 4.76
- pIC50 (HepG2): 5.66

Continued, in another order:

- pIC50 (human VEGFR-2): 8.49
Structure (SMILES): Cc1nc2ccccc2n(CC(=O)Nc2ccc(C(=O)NC(C)(C)C)cc2)c1=O [Compound 27a, N-(tert-butyl)-4-(2-(3-methyl-2-oxoquinoxalin-1(2H)-yl)acetamido)benzamide]
- Cytotoxic activity against cancer HepG2 cell line more than against normal hepatic cells (primary rat hepatocytes): 4.5 fold
- pIC50 [1]: 4.70
- pIC50 (HepG2): 5.35
- Accumulation of cells at G2/M compared to control cells (HepG2 cells [2]): 3.5 fold
- Cell cycle distribution %G1 (HepG2 cells [2]): 37.66% and 37.66 ± 2.16 %
- Cell cycle distribution %G2/M (HepG2 cells [2]): 34.14% and 34.14 ± 1.22 %
- Cell cycle distribution %S (HepG2 cells [2]): 26.96% and 26.96 ± 1.55%
- Cell cycle distribution %Sub-G1 (HepG2 cells [2]): 1.24% and 1.24 ± 0.17%
- Increase in the level of caspase-3 compared to control cells (caspase-3): 2.5 fold
- Protein expression (normalised to β-actin), Caspases-3 (caspase-3; control = 1.00): 2.51 ± 0.27
- Apoptosis, Early (right bottom) (HepG2 cells [3]): 40.47% and 40.47 ± 2.55 %
- Apoptosis, Late (right top) (HepG2 cells [3]): 0.35% and 0.35 ± 0.06%
- Increase of apoptosis compared to untreated cells (HepG2 cells [3]): about five times
- Necrosis (left top) (HepG2 cells [3]): 0.20 ± 0.04
- Viable (left bottom) (HepG2 cells [3]): 58.98 ± 2.64
- pIC50 (MCF-7): 5.11
- Increase in the level of caspase-9 compared to control cells (caspase-9): 3.43 fold
- Protein expression (normalised to β-actin), Caspases-9 (caspase-9; control = 1.00): 3.43 ± 0.49
- Increase of BAX/Bcl-2 ratio compared to control cells (BAX/Bcl-2 ratio): 5 fold
- Protein expression (normalised to β-actin), BAX/Bcl-2 ratio (BAX/Bcl-2 ratio; 24 h, control = 1.00): 5.03 ± 0.36
- Decrease in the Bcl-2 level compared to control cells (Bcl-2): 2 fold
- Protein expression (normalised to β-actin), Bcl-2 (Bcl-2; 24 h, control = 1.00): 0.52 ± 0.02
- Increase in the BAX level compared to control cells (BAX): 2.6 fold
- Protein expression (normalised to β-actin), BAX (BAX; 24 h, control = 1.00): 2.60 ± 0.20

- pIC50 (human VEGFR-2): 7.94
- melting point: > 300 °C
Structure (SMILES): COc1cccc(OC)c1NC(=O)c1ccc(NC(=O)Cn2c(=O)c(C)nc3ccccc32)cc1 [Compound 27c, N-(2,6-Dimethoxyphenyl)-4-(2-(3-methyl-2-oxoquinoxalin-1(2H)-yl)acetamido)-benzamide]
- pIC50 (HepG2): 4.37
- pIC50 (MCF-7): 4.24
- Activity against the MCF-7 cell line (in words) (MCF-7): inactive

- pIC50 (human VEGFR-2): 7.97
- melting point: > 300 °C
Structure (SMILES): Cc1nc2ccccc2n(CC(=O)Nc2ccc(C(=O)Nc3ccc(Cl)cn3)cc2)c1=O [Compound 27f, N-(5-Chloropyridin-2-yl)-4-(2-(3-methyl-2-oxoquinoxalin-1(2H)-yl)acetamido)-benzamide]
- pIC50 (HepG2): 4.71
- pIC50 (MCF-7): 4.64

- pIC50 (human VEGFR-2): 8.38
Structure (SMILES): Cc1nc2ccccc2n(CC(=O)Nc2ccc(C(=O)NNC(=O)c3ccc([N+](=O)[O-])cc3)cc2)c1=O [Compound 28, 2-(3-Methyl-2-oxoquinoxalin-1(2H)-yl)-N-(4-(2-(4-nitrobenzoyl)hydrazine-1-carbonyl)phenyl)acetamide]
- pIC50 (HepG2): 4.93
- pIC50 (MCF-7): 4.76

- pIC50 (human VEGFR-2): 8.01
Structure (SMILES): Cc1nc2ccccc2n(CC(=O)Nc2ccc(C(=O)NNc3ccccc3)cc2)c1=O [Compound 29, 2-(3-Methyl-2-oxoquinoxalin-1(2H)-yl)-N-(4-(2-phenylhydrazine-1-carbonyl)phenyl) acetamide]
- pIC50 (HepG2): 4.76
- pIC50 (MCF-7): 4.63

- pIC50 (human VEGFR-2): 8.06
Structure (SMILES): Cc1nc2ccccc2nc1SCC(=O)Nc1ccc(C(=O)NC2CCCCC2)cc1 [Compound 30b, N-Cyclohexyl-4-(2-((3-methylquinoxalin-2-yl)thio)acetamido)benzamide]
- pIC50 (HepG2): 4.47
- pIC50 (MCF-7): 4.36

- pIC50 (human VEGFR-2): 7.86
- melting point: 235 to 237 °C
Structure (SMILES): Cc1nc2ccccc2nc1SCC(=O)Nc1ccc(C(=O)NCc2ccccc2)cc1 [Compound 30c, N-benzyl-4-(2-((3-methylquinoxalin-2-yl)thio)acetamido)benzamide]
- pIC50 (HepG2): 4.47
- pIC50 (MCF-7): 4.38

- pIC50 (human VEGFR-2): 8.31
Structure (SMILES): Cc1ccccc1NC(=O)c1ccc(NC(=O)CSc2nc3ccccc3nc2C)cc1 [Compound 30f, 4-(2-((3-Methylquinoxalin-2-yl)thio)acetamido)-N-(o-tolyl)benzamide]
- Cytotoxic activity against cancer HepG2 cell line more than against normal hepatic cells (primary rat hepatocytes): 1.5 fold
- pIC50 [1]: 4.80
- pIC50 (HepG2): 4.97
- pIC50 (MCF-7): 4.74

- pIC50 (human VEGFR-2): 7.93
- melting point: 200 to 202 °C
Structure (SMILES): Cc1nc2ccccc2nc1SCC(=O)Nc1ccc(C(=O)Nc2ccc([N+](=O)[O-])cc2)cc1 [Compound 30h, 4-(2-((3-Methylquinoxalin-2-yl)thio)acetamido)-N-(4-nitrophenyl)benzamide]
- pIC50 (HepG2): 4.75
- pIC50 (MCF-7): 4.67

- pIC50 (human VEGFR-2): 8.21
Structure (SMILES): Cc1nc2ccccc2nc1SCC(=O)Nc1ccc(C(=O)Nc2ccc(Cl)cn2)cc1 [Compound 30i, N-(5-Chloropyridin-2-yl)-4-(2-((3-methylquinoxalin-2-yl)thio)acetamido)benzamide]
- pIC50 (HepG2): 4.90
- pIC50 (MCF-7): 4.76

- pIC50 (human VEGFR-2): 7.97
Structure (SMILES): Cc1nc2ccccc2nc1SCC(=O)Nc1ccc(C(=O)NNC(=O)c2ccccc2)cc1 [Compound 31a, N-(4-(2-benzoylhydrazine-1-carbonyl)phenyl)-2-((3-methylquinoxalin-2-yl)thio) acetamide]
- pIC50 (HepG2): 4.73
- pIC50 (MCF-7): 4.64

- pIC50 (human VEGFR-2): 8.29
- melting point: 196 to 198 °C
Structure (SMILES): Cc1nc2ccccc2nc1SCC(=O)Nc1ccc(C(=O)NNC(=O)c2ccc([N+](=O)[O-])cc2)cc1 [Compound 31b, 2-((3-Methylquinoxalin-2-yl)thio)-N-(4-(2-(4-nitrobenzoyl)hydrazine-1-carbonyl)phenyl) acetamide]
- pIC50 (HepG2): 4.86
- pIC50 (MCF-7): 4.72
